The results in this text go back to ChEMBL document CHEMBL1201862, “PubChem BioAssay data set” (2004).

Among the test systems are A498; ACHN; CAKI-1; COLO 205; HCT-15; M14; MDA-MB-231; Malme-3M; NCI-H226; NCI-H522; OVCAR-3; OVCAR-4; SF-539; SK-MEL-2; SNB-75; U-251; UACC-257; UACC-62; KM12; HCC 2998.
Holding throughout (assay): DTP human tumour cell line panel, 48 h

What is called GI50 is the concentration giving 50% growth inhibition.

Structures are written as SMILES.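 Compound exposure: 48 hours, 5 concentrations, 96-well plates. GI50 is the concentration that inhibits growth by half.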 Activity calls are given as the source filed them. Rule as the data show it: active = GI50 up to about 1.1 µM and inactive = higher.

On to `O=C(/C=C/c1ccc(O)c(O)c1)c1cc(O)cc(O)c1`, for which the GI50 with A498 is 18.9 µM (inactive); with ACHN it was 14.7 µM (inactive); in the experiment with CAKI-1, > 100 µM (inactive); in the experiment on COLO 205, 17.2 µM (inactive); in the experiment on HCT-15, 15.7 µM; with M14, 14 µM (inactive). In addition, the GI50 with MDA-MB-231 is 12.8 µM (inactive); in the experiment on Malme-3M, 14.4 µM (inactive); in the experiment with NCI-H226, 14.8 µM (inactive); in the experiment with NCI-H522 it was 1.71 µM (inactive); in the experiment on OVCAR-3, 13.2 µM (inactive); in the experiment on OVCAR-4, 10.4 µM (inactive). Moreover, the GI50 with SF-539 is 6.52 µM (inactive); with SK-MEL-2, 13 µM (inactive); with SNB-75, 12.2 µM (inactive); in the experiment on U-251 it was 10.8 µM (inactive); with UACC-257 it was 10.7 µM (inactive); in the experiment on UACC-62, 12.9 µM (inactive).

In the case of `Cc1ccc(-c2cc(-c3ccc(Cl)cc3)nc(/N=C3\C(=O)N(CN(C)C)c4ccccc43)n2)cc1`, the GI50 was > 100 µM (inactive) in the experiment on A498; 64.1 µM (inactive) in the experiment on ACHN; 87.9 µM (inactive) in the experiment on CAKI-1; 77.8 µM (inactive) in the experiment with COLO 205; 41.1 µM in the experiment with HCT-15; 64.6 µM (inactive) in the experiment with KM12. For the same compound, the GI50 was > 100 µM (inactive) in the experiment on M14; > 100 µM (inactive) in the experiment with MDA-MB-231; > 100 µM (inactive) in the experiment with Malme-3M; > 100 µM (inactive) in the experiment with NCI-H226; 20.8 µM (inactive) with NCI-H522; > 100 µM (inactive) in the experiment on OVCAR-3. The GI50 in the experiment with OVCAR-4 is 41.2 µM (inactive); with SF-539 it was > 100 µM (inactive); with SK-MEL-2, 31.4 µM (inactive); in the experiment on SNB-75 it was 57.8 µM (inactive); with U-251, 55 µM (inactive); in the experiment with UACC-257, 24.8 µM (inactive). For the same compound, in the experiment on UACC-62, the GI50 is 97.1 µM (inactive).

Regarding `Cc1cc(O)c(C(c2ccncc2)c2c(O)cc(C)[nH]c2=O)c(=O)[nH]1`, the GI50 in the experiment on ACHN was > 100 µM (inactive); with CAKI-1, 5.12 µM (inactive); in the experiment on COLO 205 it was > 100 µM (inactive); with HCT-15, above 100 µM; in the experiment on KM12, > 100 µM (inactive); in the experiment on M14, > 100 µM (inactive). The GI50 with MDA-MB-231, in the experiment on Malme-3M, in the experiment with NCI-H522, in the experiment on OVCAR-3, in the experiment on OVCAR-4 and with U-251 was > 100 µM (inactive) each time. Also, the GI50 in the experiment with UACC-257 and in the experiment on UACC-62 was > 100 µM (inactive) throughout.

For `COC(=O)C1(C(=O)OC)Cc2ccc(C)cc2C2=C1C(=O)c1ccccc1C2=O`, the GI50 in the experiment on ACHN was 16.5 µM (inactive); in the experiment on HCT-15, 12.6 µM; with KM12 it was 16.6 µM (inactive); in the experiment on M14, > 10 µM (inactive); with MDA-MB-231, 16.7 µM (inactive); in the experiment with Malme-3M it was 32 µM (inactive). For the same compound, the GI50 was > 100 µM (inactive) with NCI-H226; 15.1 µM (inactive) in the experiment on NCI-H522; 3.24 µM (inactive) with OVCAR-3; 11.5 µM (inactive) in the experiment with OVCAR-4; 23.9 µM (inactive) in the experiment on SF-539; 11.7 µM (inactive) with SK-MEL-2. Moreover, the results for the GI50 in the experiment with SNB-75, in the experiment on UACC-257 and with UACC-62 were 12.8 µM (inactive), 16.5 µM (inactive) and 13.8 µM (inactive), respectively.

For the compound `CC(C)N(C(=O)C12C3C4C1(I)C1C2C3(I)C41C(=O)N(C(C)C)C(C)C)C(C)C` (configuration not stated), the GI50 in the experiment with A498 was > 100 µM (inactive); with ACHN, > 100 µM (inactive); in the experiment with CAKI-1, > 100 µM (inactive); in the experiment on COLO 205, > 57.3 µM (inactive); with HCC 2998, > 100 µM (inactive); in the experiment with HCT-15, above 43.3 µM. Besides, the GI50 in the experiment on KM12 was > 43.2 µM (inactive); in the experiment with M14 it was > 100 µM (inactive); with Malme-3M it was > 100 µM (inactive); with NCI-H226 it was > 100 µM (inactive); in the experiment with NCI-H522 it was > 75.9 µM (inactive); in the experiment on OVCAR-3 it was > 100 µM (inactive). The GI50 with OVCAR-4 is > 58.5 µM (inactive); with SF-539, > 43.9 µM (inactive); in the experiment on SK-MEL-2 it was > 100 µM (inactive); with SNB-75 it was > 73.1 µM (inactive); with U-251 it was > 71 µM (inactive); in the experiment with UACC-257 it was > 100 µM (inactive). The GI50 in the experiment with UACC-62 is > 100 µM (inactive).

Turning to `CCCNC(=O)C(C)(Cl)C(=O)c1ccccc1O` (configuration not stated), the GI50 was > 100 µM (inactive) with A498; > 100 µM (inactive) in the experiment with ACHN; > 100 µM (inactive) in the experiment on CAKI-1; > 100 µM (inactive) with COLO 205; > 100 µM (inactive) with HCC 2998; above 100 µM in the experiment with HCT-15. Moreover, the GI50 with KM12, in the experiment with M14, in the experiment on Malme-3M, in the experiment with NCI-H226, in the experiment with NCI-H522 and in the experiment on OVCAR-3 was > 100 µM (inactive) in each case. Moreover, the GI50 in the experiment on OVCAR-4, in the experiment with SF-539, in the experiment with SK-MEL-2, in the experiment with SNB-75, in the experiment with U-251 and with UACC-257 was > 100 µM (inactive) in each case. In addition, the GI50 with UACC-62 was > 100 µM (inactive).

Take `Cc1c2ccnc(C(N)=O)c2c(C)c2c1[nH]c1ccccc12`: the GI50 in the experiment on A498 is 8.18 µM (inactive); in the experiment on ACHN, 2.51 µM (inactive); in the experiment on CAKI-1 it was 3.83 µM (inactive); in the experiment with COLO 205, 5.07 µM (inactive); in the experiment with HCC 2998, 14.1 µM (inactive); in the experiment on HCT-15, 4.1 µM. Also, the GI50 in the experiment on KM12 is 6.07 µM (inactive); with M14, 6.58 µM (inactive); with Malme-3M, 6.15 µM (inactive); in the experiment on NCI-H226, 6.65 µM (inactive); in the experiment on NCI-H522, 7.59 µM (inactive); in the experiment on OVCAR-3, 9.08 µM (inactive). The GI50 with OVCAR-4 is 9.31 µM (inactive); with SF-539, 6.76 µM (inactive); with SK-MEL-2, 13.1 µM (inactive); with SNB-75, 10.6 µM (inactive); in the experiment on U-251 it was 8.51 µM (inactive); in the experiment with UACC-257, 10.5 µM (inactive). The GI50 in the experiment on UACC-62 is 4.92 µM (inactive).

Regarding `N#CCC(=O)N/N=C(/C(=O)Nc1ccccc1)C1C(=O)N(c2ccccc2)N=C1N` (configuration not stated), the GI50 was > 100 µM (inactive) in the experiment on A498; > 100 µM (inactive) with ACHN; > 100 µM (inactive) with CAKI-1; > 100 µM (inactive) with COLO 205; > 100 µM (inactive) in the experiment on HCC 2998; above 100 µM in the experiment on HCT-15. Besides, the GI50 with KM12, in the experiment with M14, in the experiment on Malme-3M, with NCI-H226, in the experiment with NCI-H522 and in the experiment on OVCAR-3 was > 100 µM (inactive) throughout. The GI50 in the experiment on OVCAR-4, with SF-539, with SK-MEL-2, in the experiment with SNB-75, with U-251 and with UACC-257 was > 100 µM (inactive) each time. Moreover, in the experiment with UACC-62, the GI50 was > 100 µM (inactive).
